Source: PMC9161374 (Science Translational Medicine, 2022)
Where “and” joins values, the source holds several entries; their conditions need not be identical. Equal values may be shown once.

Columns and labels:
SARS-CoV-2 (B.1) = assay: Anti-SARS-CoV-2 activity in Vero E6 cells (viral yield by qRT-PCR); format: cell-based
[1] = tested on: SARS-CoV-2 (Delta, B.1.617.2); assay: microbe, parasite or virus in culture; format: cell-based; conditions: for % Inhibition: delta
[2] = tested on: SARS-CoV-2 (B.1) in Huh7 cells; assay: Anti-SARS-CoV-2 activity in Huh7 cells (viral yield by qRT-PCR); format: cell-based; conditions: B.1, MOI 0.05, 48 h
[3] = tested on: SARS-CoV-2 replicon system (pBAC-SARS-CoV-2-Replicon-Luc); assay: microbe, parasite or virus in culture; format: cell-based; conditions: Severe acute respiratory syndrome coronavirus 2, HEK-293T, 60 h
[4] = tested on: SARS-CoV-2 (Beta, B.1.351); assay: microbe, parasite or virus in culture; format: cell-based; conditions: for % Inhibition: beta
[5] = CCK-8 cell viability assay; format: cell-based, African green monkey; conditions: African green monkey; Vero E6 cells, 48 h, CCK8
Method in brief: (§1)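 Vero E6 cells, 20,000/well, exposed to compound at 0–200 μM (0, 0.01, 0.1, 1, 5, 10, 50, 75, 100, 200 μM) for 48 h; viability read by CCK-8 and expressed as percentage versus drug concentration, mean ± SD.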

Vero E6 cells = assay: CCK-8 cell viability assay; format: cell-based, African green monkey; conditions: individual replicate values, Fig.S4
Method in brief: as §1

CCC(CC)C(=O)OC[C@H]1O[C@@](C#N)(c2ccc3c(N)ncnn23)[C@H](O)[C@@H]1O [ATV011]
% Inhibition (SARS-CoV-2 (B.1); 0.1 μM, replicates, sheet Fig.S3): 0%
% Inhibition (SARS-CoV-2 (B.1); 0.5 μM, replicates, sheet Fig.S3): 0%
% Inhibition (SARS-CoV-2 (B.1); 1 μM, replicates, sheet Fig.S3): 78.517%
% Inhibition (SARS-CoV-2 (B.1); 2 μM, replicates, sheet Fig.S3): 79.6525%
% Inhibition (SARS-CoV-2 (B.1); 5 μM, replicates, sheet Fig.S3): 91.2053%
% Inhibition (SARS-CoV-2 (B.1); 10 μM, replicates, sheet Fig.S3): 90.9393%
% Inhibition (SARS-CoV-2 (B.1); B.1, 0.01 uM, Vero E6, replicates): 0%
% Inhibition (SARS-CoV-2 (B.1); B.1, 0.1 uM, Vero E6, replicates): 0%
% Inhibition (SARS-CoV-2 (B.1); B.1, 0.25 uM, Vero E6, replicates): 0%
% Inhibition (SARS-CoV-2 (B.1); B.1, 0.5 uM, Vero E6, replicates): 0%
% Inhibition (SARS-CoV-2 (B.1); B.1, 1 uM, Vero E6, replicates): 0%
% Inhibition (SARS-CoV-2 (B.1); B.1, 2 uM, Vero E6, replicates, 2 µM): 3.841% and 72.4491%
% Inhibition (SARS-CoV-2 (B.1); B.1, 5 uM, Vero E6, replicates, 5 µM): 99.7181%
% Inhibition (SARS-CoV-2 (B.1); B.1, 10 uM, Vero E6, replicates, 10 µM): 99.9819%
% Inhibition (SARS-CoV-2 (B.1); B.1, 50 uM, Vero E6, replicates, 50 µM): 99.9874%
inhibition at 0.1 µM (SARS-CoV-2 (B.1); Severe acute respiratory syndrome coronavirus 2, Vero C1008, 0.1 μM, replicates, sheet Fig.S3): 0%
inhibition at 0.5 µM (SARS-CoV-2 (B.1); Severe acute respiratory syndrome coronavirus 2, Vero C1008, 0.5 μM, replicates, sheet Fig.S3): 0%
inhibition at 1 µM (SARS-CoV-2 (B.1); Severe acute respiratory syndrome coronavirus 2, Vero C1008, 1 μM, replicates, sheet Fig.S3): 77.4%
inhibition at 2 µM (SARS-CoV-2 (B.1); Severe acute respiratory syndrome coronavirus 2, Vero C1008, 2 μM, replicates, sheet Fig.S3): 78%
inhibition at 5 µM (SARS-CoV-2 (B.1); Severe acute respiratory syndrome coronavirus 2, Vero C1008, 5 μM, replicates, sheet Fig.S3): 93.5%
inhibition at 10 µM (SARS-CoV-2 (B.1); Severe acute respiratory syndrome coronavirus 2, Vero C1008, 10 μM, replicates, sheet Fig.S3): 93.2%
inhibition at 0.01 µM (SARS-CoV-2 (B.1); Severe acute respiratory syndrome coronavirus 2, Vero C1008, B.1, 0.01 uM, Vero E6, replicates): 0%
inhibition at 0.1 µM (SARS-CoV-2 (B.1); Severe acute respiratory syndrome coronavirus 2, Vero C1008, B.1, 0.1 uM, Vero E6, replicates): 0%
inhibition at 0.25 µM (SARS-CoV-2 (B.1); Severe acute respiratory syndrome coronavirus 2, Vero C1008, B.1, 0.25 uM, Vero E6, replicates): 0%
inhibition at 0.5 µM (SARS-CoV-2 (B.1); Severe acute respiratory syndrome coronavirus 2, Vero C1008, B.1, 0.5 uM, Vero E6, replicates): 0%
inhibition at 1 µM (SARS-CoV-2 (B.1); Severe acute respiratory syndrome coronavirus 2, Vero C1008, B.1, 1 uM, Vero E6, replicates): 0%
inhibition at 5 µM (SARS-CoV-2 (B.1); Severe acute respiratory syndrome coronavirus 2, Vero C1008, B.1, 5 uM, Vero E6, replicates): 99.5%
inhibition at 10 µM (SARS-CoV-2 (B.1); Severe acute respiratory syndrome coronavirus 2, Vero C1008, B.1, 10 uM, Vero E6, replicates): 99.9%
inhibition at 50 µM (SARS-CoV-2 (B.1); Severe acute respiratory syndrome coronavirus 2, Vero C1008, B.1, 50 uM, Vero E6, replicates): 99.9%
EC90 (SARS-CoV-2 (B.1); Severe acute respiratory syndrome coronavirus 2, Vero C1008, read-out: EC90 (Confidence 95%)): 2640 nM
EC50 (SARS-CoV-2 (B.1); Severe acute respiratory syndrome coronavirus 2, Vero C1008, MOI 0.05, 48 h): 2120 nM
EC50 ([1]; Severe acute respiratory syndrome coronavirus 2, Vero C1008, 48 h, read-out: EC50 in Vero E6 cells, SARS-CoV-2 (Delta, B.1.617.2)): 408 nM
inhibition at 0.01 µM ([1]; Severe acute respiratory syndrome coronavirus 2, Vero C1008, delta, 0.01 uM, Vero E6, replicates): 0%
inhibition at 0.1 µM ([1]; Severe acute respiratory syndrome coronavirus 2, Vero C1008, delta, 0.1 uM, Vero E6, replicates): 0%
inhibition at 0.25 µM ([1]; Severe acute respiratory syndrome coronavirus 2, Vero C1008, delta, 0.25 uM, Vero E6, replicates): 18.8%
inhibition at 0.5 µM ([1]; Severe acute respiratory syndrome coronavirus 2, Vero C1008, delta, 0.5 uM, Vero E6, replicates): 74.2%
inhibition at 1 µM ([1]; Severe acute respiratory syndrome coronavirus 2, Vero C1008, delta, 1 uM, Vero E6, replicates): 83.5%
inhibition at 2 µM ([1]; Severe acute respiratory syndrome coronavirus 2, Vero C1008, delta, 2 uM, Vero E6, replicates): 94.4%
inhibition at 5 µM ([1]; Severe acute respiratory syndrome coronavirus 2, Vero C1008, delta, 5 uM, Vero E6, replicates): 94.6%
inhibition at 10 µM ([1]; Severe acute respiratory syndrome coronavirus 2, Vero C1008, delta, 10 uM, Vero E6, replicates): 99.9%
inhibition at 50 µM ([1]; Severe acute respiratory syndrome coronavirus 2, Vero C1008, delta, 50 uM, Vero E6, replicates): 100%
EC90 ([1]; Severe acute respiratory syndrome coronavirus 2, Vero C1008, read-out: EC90 (Confidence 95%), Vero-E6, Delta B.1.617.2): 842 nM
% Inhibition ([1]; 0.01 uM, Vero E6, replicates): 0%
% Inhibition ([1]; 0.1 uM, Vero E6, replicates): 0%
% Inhibition ([1]; 0.25 uM, Vero E6, replicates): 20.35%
% Inhibition ([1]; 0.5 uM, Vero E6, replicates): 62.851%
% Inhibition ([1]; 1 uM, Vero E6, replicates): 82.2323%
% Inhibition ([1]; 2 uM, Vero E6, replicates): 91.97%
% Inhibition ([1]; 5 uM, Vero E6, replicates): 91.6601%
% Inhibition ([1]; 10 uM, Vero E6, replicates): 99.4778%
% Inhibition ([1]; 50 uM, Vero E6, replicates): 99.7579%
EC50 ([2]; Severe acute respiratory syndrome coronavirus 2, Huh-7, read-out: EC50 (Confidence 95%) in Huh7 cells): 836 nM
EC90 ([2]; Severe acute respiratory syndrome coronavirus 2, Huh-7, read-out: EC90 (Confidence 95%) in Huh7 cells): 1010 nM
EC50 ([3]; read-out: EC50 (Confidence 95%), replicon): 320 nM
EC90 ([3]; read-out: EC90 (Confidence 95%), replicon): 384 nM
EC50 ([4]; Severe acute respiratory syndrome coronavirus 2, Vero C1008, 48 h, read-out: EC50 in Vero E6 cells, SARS-CoV-2 (Beta, B.1.351)): 2300 nM
inhibition at 0.01 µM ([4]; Severe acute respiratory syndrome coronavirus 2, Vero C1008, beta, 0.01 uM, Vero E6, replicates): 0%
inhibition at 0.1 µM ([4]; Severe acute respiratory syndrome coronavirus 2, Vero C1008, beta, 0.1 uM, Vero E6, replicates): 0%
inhibition at 0.25 µM ([4]; Severe acute respiratory syndrome coronavirus 2, Vero C1008, beta, 0.25 uM, Vero E6, replicates): 0%
inhibition at 0.5 µM ([4]; Severe acute respiratory syndrome coronavirus 2, Vero C1008, beta, 0.5 uM, Vero E6, replicates): 0%
inhibition at 1 µM ([4]; Severe acute respiratory syndrome coronavirus 2, Vero C1008, beta, 1 uM, Vero E6, replicates): 0%
inhibition at 2 µM ([4]; Severe acute respiratory syndrome coronavirus 2, Vero C1008, beta, 2 uM, Vero E6, replicates): 29.7%
inhibition at 5 µM ([4]; Severe acute respiratory syndrome coronavirus 2, Vero C1008, beta, 5 uM, Vero E6, replicates): 99.6%
inhibition at 10 µM ([4]; Severe acute respiratory syndrome coronavirus 2, Vero C1008, beta, 10 uM, Vero E6, replicates): 99.9%
inhibition at 50 µM ([4]; Severe acute respiratory syndrome coronavirus 2, Vero C1008, beta, 50 uM, Vero E6, replicates): 99.9%
EC90 ([4]; Severe acute respiratory syndrome coronavirus 2, Vero C1008, read-out: EC90 (Confidence 95%), Vero-E6, Beta B.1.351): 2950 nM
% Inhibition ([4]; 0.01 uM, Vero E6, replicates): 0%
% Inhibition ([4]; 0.1 uM, Vero E6, replicates): 0%
% Inhibition ([4]; 0.25 uM, Vero E6, replicates): 0%
% Inhibition ([4]; 0.5 uM, Vero E6, replicates): 0%
% Inhibition ([4]; 1 uM, Vero E6, replicates): 0%
% Inhibition ([4]; 2 uM, Vero E6, replicates): 22.548%
% Inhibition ([4]; 5 uM, Vero E6, replicates): 99.5042%
% Inhibition ([4]; 10 uM, Vero E6, replicates): 99.9468%
% Inhibition ([4]; 50 uM, Vero E6, replicates): 99.9524%
CC50 at 48 h [5]: > 50000 nM
cell viability (% of control) (Vero E6 cells; 0.01 μM compound, 0.01 µM): 118.751 % of control and 91.986 % of control and 93.878 % of control
cell viability (% of control) (Vero E6 cells; 0.1 μM compound, 0.1 µM): 121.196 % of control and 124.104 % of control and 115.797 % of control
cell viability (% of control) (Vero E6 cells; 1 μM compound, 1 µM): 117.043 % of control and 115.382 % of control and 124.473 % of control
cell viability (% of control) (Vero E6 cells; 2 μM compound, 2 µM): 120.919 % of control and 113.536 % of control and 114.367 % of control
cell viability (% of control) (Vero E6 cells; 5 μM compound, 5 µM): 138.178 % of control and 143.9 % of control and 139.562 % of control
cell viability (% of control) (Vero E6 cells; 10 μM compound, 10 µM): 141.085 % of control and 129.595 % of control and 122.535 % of control
cell viability (% of control) (Vero E6 cells; 50 μM compound, 50 µM): 76.4283 % of control and 65.5331 % of control and 77.184 % of control
